Experiment [1] deals with synthesis of LTB4 in human whole blood. Nature of the experiment: human whole blood LTB4 production inhibition assay. It is filed as cell-based. The conditions noted are these: heparinized human whole blood, calcimycin 20 μM, read-out: hWB LTB4 IC50. Here is the method: Compounds are additionally tested in a human whole blood assay to determine their ability to inhibit the synthesis of LTB4 in a cellular system. Compounds are combined with heparinized human whole blood and incubated for 15 minutes at 37° C. Calcimycin (20 μM final, prepared in phosphate-buffered saline, pH 7.4) is then added and the mixture is incubated for another 30 minutes at 37° C. The samples are centrifuged for 5 min at low speed (1500×g) and the plasma layer is removed. Plasma LTB4 concentrations are then measured using an antibody-based homogenous time-resolved fluorescence method (CisBio, Bedford, Mass.).

Experiment [2] deals with T1, recombinant human FLAP protein (Homo sapiens, UniProt P20292).
T1 construct: made in house; host or cells: Sf9 insect cells (100,000 x g membrane fraction)
T1 sequence (P20292 1-161): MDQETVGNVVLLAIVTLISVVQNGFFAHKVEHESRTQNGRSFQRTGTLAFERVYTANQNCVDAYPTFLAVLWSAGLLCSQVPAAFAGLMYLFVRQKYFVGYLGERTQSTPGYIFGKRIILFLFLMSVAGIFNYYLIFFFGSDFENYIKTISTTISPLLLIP
Nature of the experiment: FLAP binding assay (Scintillation Proximity Assay, displacement of [125I]L-691,831). The following applies: recombinant human FLAP membranes, [125I]L-691,831 probe; read-out: FLAP SPA IC50. On the procedure: Cell pellets produced from sf9 insect cells expressing recombinant human FLAP protein are resuspended in buffer A [15 mM Tris-HCl (pH 7.5), 2 mM MgCl2, 0.3 mM EDTA, 1 mM PMSF]. The cells are lysed with a Dounce homogenizer and the material is centrifuged at 10,000×g for 10 minutes. The supernatant is then collected and centrifuged at 100,000×g for 60 minutes. To prepare membrane protein for an assay, an aliquot of the 100,000×g pellet is resuspended in 1 ml of buffer A, Dounce homogenized, and finally subjected to polytron mixing (30 seconds). Membrane protein (25 μl, 5 μg) is mixed with WGA SPA beads (Amersham) and stirred for 1 h.
(SPA uses beads or plates that emit light when radiolabelled molecules are held near them.)

Where two headings read alike, the source gives them in different places. Where only a bound is given, the exact number is not on record here.

Regarding `Cn1cc(-c2nc(C3(c4ccc(-c5ccc(C6CC6)nc5)cc4)CCC3)no2)cn1` [Example 248, 2-Cyclopropyl-5-(4-{1-[5-(1-methyl-1H-pyrazol-4-yl)-[1,2,4]oxadiazol-3-yl]-cyclobutyl}-phenyl)-pyridine], the figures for the IC50 in experiment [1] (Homo sapiens) and in experiment [2] were more than 5 µM and 0.73 µM, respectively.

For the compound `CCN(CC)C(=O)n1cc(-c2nc(C3(c4ccc(-c5cnc(N)nc5)cc4)CCC3)no2)cn1` [Example 211, 4-(3-{1-[4-(2-Amino-pyrimidin-5-yl)-phenyl]-cyclobutyl}-[1,2,4]oxadiazol-5-yl)-pyrazole-1-carboxylic acid diethylamide], the IC50 (as a rule, the concentration that gives 50% inhibition) in experiment [1] (Homo sapiens) was determined as 0.089 µM; in experiment [2], 0.003 µM.

Take `Nc1ncc(-c2ccc(C3(c4noc(-c5ccncc5)n4)CCOCC3)cc2)cn1` [Example 147, 5-{4-[4-(5-Pyridin-4-yl-1,2,4-oxadiazol-3-yl)-tetrahydro-pyran-4-yl]-phenyl}-pyrimidin-2-ylamine]: the results for the IC50 in experiment [1] (Homo sapiens) and in experiment [2] were 1.7 µM and 0.033 µM, respectively.

On to `Cc1cc(-c2nc(C3(c4ccc(-c5cnc(N)nc5)cc4)CCC3)no2)n(C)n1` [Example 161, 5-(4-{1-[5-(2,5-Dimethyl-2H-pyrazol-3-yl)-1,2,4-oxadiazol-3-yl]-cyclobutyl}-phenyl)-pyrimidin-2-ylamine], for which the values for the IC50 in experiment [1] (Homo sapiens) and in experiment [2] were 0.86 µM and 0.0066 µM, respectively.

In the case of `CCn1ncc(-c2nc(C3(c4ccc(-c5cnc(N)nc5)cc4)CCC3)no2)c1C` [Example 2, 5-(4-{1-[5-(1-ethyl-5-methyl-1H-pyrazol-4-yl)-1,2,4-oxadiazol-3-yl]-cyclobutyl}-phenyl)-pyrimidin-2-ylamine], the IC50 in experiment [1] (Homo sapiens) came out at 0.1 µM; in experiment [2] it was 0.0022 µM.

`Cc1ccc(C(=O)Nc2nc(C3(c4ccc(-c5cnc(N)nc5)cc4)CCC3)no2)cn1` [Example 178, N-(3-{1-[4-(2-Amino-pyrimidin-5-yl)-phenyl]-cyclobutyl}-1,2,4-oxadiazol-5-yl)-6-methyl-nicotinamide]: the IC50 in experiment [1] (Homo sapiens) was more than 5 µM; in experiment [2] it was 0.061 µM.

`Nc1ncc(-c2ccc(C3(c4noc(-c5nc[nH]n5)n4)CCC3)cc2)cn1` [Example 156, 5-(4-{1-[5-(2H-1,2,4-Triazol-3-yl)-1,2,4-oxadiazol-3-yl]-cyclobutyl}-phenyl)-pyrimidin-2-ylamine]: the results for the IC50 in experiment [1] (Homo sapiens) and in experiment [2] were more than 5 µM and 0.013 µM, respectively.

For `Nc1ncc(-c2ccc(C3(c4noc(-c5ccc(C(=O)N6CCC(F)(F)CC6)nc5)n4)CCC3)cc2)cn1` [Example 59, [5-(3-{1-[4-(2-amino-pyrimidin-5-yl)-phenyl]-cyclobutyl}-1,2,4-oxadiazol-5-yl)-pyridin-2-yl]-(4,4-difluoro-piperidin-1-yl)-methanone], the IC50 in experiment [1] (Homo sapiens) was 0.13 µM; in experiment [2], 0.0051 µM.

In the case of `Nc1ccc(-c2ccc(C3(c4noc(-c5cnn(C6COC6)c5)n4)CCC3)cc2)cn1` [Example 252, 5-(4-{1-[5-(1-Oxetan-3-yl-1H-pyrazol-4-yl)-[1,2,4]oxadiazol-3-yl]-cyclobutyl}-phenyl)-pyridin-2-ylamine], the results for the IC50 in experiment [1] (Homo sapiens) and in experiment [2] were 0.034 µM and 0.0053 µM, respectively.

Take `Nc1ncc(-c2ccc(C3(c4noc(-c5cnc(N6CCNCC6)cn5)n4)CCC3)cc2)cn1` [Example 124, 5-(4-{1-[5-(3,4,5,6-Tetrahydro-1H-1,2′-bipyrazinyl-5′-yl)-1,2,4-oxadiazol-3-yl]-cyclobutyl}-phenyl)-pyrimidin-2-ylamine]: the IC50 in experiment [1] is more than 5 µM; in experiment [2] it was 0.0035 µM.

As to `Nc1ncc(-c2ccc(C3(c4noc(-c5c[nH]c(=O)cn5)n4)CCC3)cc2)cn1` [Example 16, 5-(3-{1-[4-(2-Amino-pyrimidin-5-yl)-phenyl]-cyclobutyl}-1,2,4-oxadiazol-5-yl)-1H-pyrazin-2-one], the IC50 in experiment [1] (Homo sapiens) is more than 5 µM; in experiment [2], 0.0033 µM.

For the compound `COC(=O)[C@@H]1CN(c2cnc(-c3nc(C4(c5ccc(-c6cnc(N)nc6)cc5)CCC4)no3)cn2)CCN1` [Example 126, (S)-5′-(3-{1-[4-(2-Amino-pyrimidin-5-yl)-phenyl]-cyclobutyl}-1,2,4-oxadiazol-5-yl)-3,4,5,6-tetrahydro-2H-1,2′-bipyrazinyl-3-carboxylic acid methyl ester], the figures for the IC50 in experiment [1] and in experiment [2] were more than 5 µM and 0.0057 µM, respectively.

Regarding `COC1CCN(C(=O)Cn2cc(-c3nc(C4(c5ccc(-c6cnc(N)nc6)cc5)CCC4)no3)cn2)CC1` [Example 234, 2-[4-(3-{1-[4-(2-Amino-pyrimidin-5-yl)-phenyl]-cyclobutyl}-[1,2,4]oxadiazol-5-yl)-pyrazol-1-yl]-1-(4-methoxy-piperidin-1-yl)-ethanone], the half-inhibitory concentration (IC50) in experiment [1] (Homo sapiens) stood at 0.082 µM; in experiment [2] it was 0.0035 µM.

`Nc1ncc(-c2ccc(C3(c4noc(-c5ccncn5)n4)CCC3)cc2)cn1` [Example 171, 5-{4-[1-(5-Pyrimidin-4-yl-1,2,4-oxadiazol-3-yl)-cyclobutyl]-phenyl}-pyrimidin-2-ylamine]: the IC50 in experiment [1] (Homo sapiens) turned out to be 0.82 µM; in experiment [2], 0.014 µM.

On to `CCNC(=O)Cn1cc(-c2nc(C3(c4ccc(-c5cnc(N)nc5)cc4)CCC3)no2)cn1` [Example 204, 2-[4-(3-{1-[4-(2-Amino-pyrimidin-5-yl)-phenyl]-cyclobutyl}-[1,2,4]oxadiazol-5-yl)-pyrazol-1-yl]-N-ethyl-acetamide], for which the IC50 in experiment [1] was 0.075 µM; in experiment [2] it was 0.0045 µM.

Turning to `Nc1ncc(-c2ccc(C3(c4noc(N5CCC[C@H]5CO)n4)CCC3)cc2)cn1` [Example 288, [(S)-1-(3-{1-[4-(2-Amino-pyrimidin-5-yl)-phenyl]-cyclobutyl}-[1,2,4]oxadiazol-5-yl)-pyrrolidin-2-yl]-methanol], the IC50 in experiment [1] (Homo sapiens) amounted to 0.31 µM; in experiment [2], 0.026 µM.

Consider `Nc1ncc(-c2ccc(C3(c4noc(-c5cccnc5N)n4)CCC3)cc2)cn1` [Example 4, 5-(4-{1-[5-(2-Amino-pyridin-3-yl)-1,2,4-oxadiazol-3-yl]-cyclobutyl}-phenyl)-pyrimidin-2-ylamine], for which the IC50 was 0.72 µM in experiment [1] (Homo sapiens) and 0.0046 µM in experiment [2].

`Nc1ncc(-c2ccc(C3(c4noc(-c5ccc(O)cc5)n4)CCC3)cc2)cn1` [Example 44, 4-(3-{1-[4-(2-Amino-pyrimidin-5-yl)-phenyl]-cyclobutyl}-1,2,4-oxadiazol-5-yl)-phenol]: the IC50 in experiment [1] (Homo sapiens) was 0.075 µM; in experiment [2] it was 0.0031 µM.

Regarding `Nc1ncc(-c2ccc(C3(c4noc(-c5ccccc5)n4)CCC3)cc2)cn1` [Example 144, 5-{4-[1-(5-Phenyl-1,2,4-oxadiazol-3-yl)-cyclobutyl]-phenyl}-pyrimidin-2-ylamine], the IC50 in experiment [1] (Homo sapiens) was found to be 0.47 µM; in experiment [2], 0.0014 µM.

As to `Nc1ncc(-c2ccc(C3(c4noc(-c5cnn(C6CCNCC6)c5)n4)CCC3)cc2)cn1` [Example 233, 5-(4-{1-[5-(1-Piperidin-4-yl-1H-pyrazol-4-yl)-[1,2,4]oxadiazol-3-yl]-cyclobutyl}-phenyl)-pyrimidin-2-ylamine], the IC50 worked out at 0.7 µM in experiment [1] (Homo sapiens) and 0.0098 µM in experiment [2].

On to `Cc1ccc(-c2nc(C3(c4ccc(-c5cnc(N)nc5)cc4)CCCC3)no2)cn1` [Example 155, 5-(4-{1-[5-(6-Methyl-pyridin-3-yl)-1,2,4-oxadiazol-3-yl]-cyclopentyl}-phenyl)-pyrimidin-2-ylamine], for which the IC50 stood at 0.4 µM in experiment [1] (Homo sapiens) and 0.0028 µM in experiment [2].
